Reference: US8318781B2, “G-protein-conjugated receptor agonist” (Japan Science and Technology Agency, priority 2007, dated 2012)

How the values were obtained:
human GPR120 (hGPR120) = molecular target: T1, human GPR120 (hGPR120) (Homo sapiens, UniProt Q5NUL3); experiment: ERK assay, screening for GPR120 ligands in cell line TXGPR120;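 on ERK/GPR120 10 μM: signals normalized between DMSO and PMA controls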; assay type: cell-based; details: for selectivity for GPR120 in ERK assay (in words): GPR120 versus GPR40; for ERK activation for GPR120 (in words) / ERK/GPR120 10 μM / ERK/GPR120 100 μM: TXGPR120 cells; for ERK activation for GPR120 (in words): FIGS. 5-8; for ERK/GPR120 10 μM: ligand 10 μM; for ERK/GPR120 10 μM / ERK/GPR120 100 μM: class relative to LA; for ERK/GPR120 100 μM: ligand 100 μM
T1 construct: expressed in transfected cells; doxycycline-inducible expression vector
T1 sequence (Q5NUL3 1-361): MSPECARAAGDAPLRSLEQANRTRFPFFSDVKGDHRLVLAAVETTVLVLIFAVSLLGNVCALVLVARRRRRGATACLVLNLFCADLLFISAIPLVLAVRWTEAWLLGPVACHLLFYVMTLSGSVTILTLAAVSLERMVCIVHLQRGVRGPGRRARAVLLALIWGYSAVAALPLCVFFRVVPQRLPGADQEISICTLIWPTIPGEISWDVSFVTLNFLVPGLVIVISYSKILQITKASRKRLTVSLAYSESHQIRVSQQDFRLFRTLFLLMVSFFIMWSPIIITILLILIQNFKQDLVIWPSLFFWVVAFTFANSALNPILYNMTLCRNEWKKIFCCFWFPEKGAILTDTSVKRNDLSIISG

human GPR40 (hGPR40) = molecular target: T2, human GPR40 (hGPR40) (Homo sapiens, UniProt O14842); experiment: ERK assay, screening for GPR40 ligands in cell line TXGPR40; assay type: cell-based; details: TXGPR40 cells, class relative to LA; for ERK/GPR40 100 μM: ligand 100 μM
T2 construct: expressed in transfected cells; doxycycline-inducible expression vector
T2 sequence (O14842 whole entry): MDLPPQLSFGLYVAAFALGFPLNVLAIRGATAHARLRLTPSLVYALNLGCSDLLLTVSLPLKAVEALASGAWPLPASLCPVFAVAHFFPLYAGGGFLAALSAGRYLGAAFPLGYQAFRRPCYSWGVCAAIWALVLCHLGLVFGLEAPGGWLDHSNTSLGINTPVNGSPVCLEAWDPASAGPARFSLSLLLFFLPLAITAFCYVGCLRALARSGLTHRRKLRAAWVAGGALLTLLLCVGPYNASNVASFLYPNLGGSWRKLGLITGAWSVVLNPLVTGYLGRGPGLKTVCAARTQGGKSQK

| selectivity for GPR120 in ERK assay (in words) (human GPR120 (hGPR120)) | ERK activation for GPR120 (in words) (human GPR120 (hGPR120)) | ERK/GPR120 10 μM (human GPR120 (hGPR120)) | ERK/GPR120 100 μM (human GPR120 (hGPR120)) | ERK/GPR40 100 μM (human GPR40 (hGPR40)) | ERK/GPR40 10 μM (human GPR40 (hGPR40); ligand 10 μM) | Compound |
| --- | --- | --- | --- | --- | --- | --- |
| selective for GRP120 | strongly activate ERK | +++ (+++ denotes a higher value than LA) | +++ (+++ denotes a higher value than LA) | ++ (++ denotes 50 to 100% of LA) |  | O=C(O)CCCc1ccc(OCCN(c2ccccc2)c2nccs2)cc1 [NCG46] |
| selective for GRP120 | strongly activate ERK | +++ (+++ denotes a higher value than LA) | +++ (+++ denotes a higher value than LA) | ++ (++ denotes 50 to 100% of LA) | + (+ denotes 0 to 100% of LA) | CN(C)c1ccc(N(CCOc2ccc(CCCC(=O)O)cc2)c2ccccn2)cc1 [NCG54] |
